From US20230027066A1 (Urovant Sciences GmbH, priority 2019, published 2023)

System: men and women with overactive bladder
Assay: Phase 3 study of vibegron 75 mg vs placebo and tolterodine ER 4 mg, 12 weeks, efficacy (voiding and urine volume diary)
Format: in vivo, human
Conditions: for Patients with at Least 75% Reduction in Total Incontinence, Adjusted (%) / Patients with at Least 75% Reduction in Total Incontinence, Adjusted n / Patients with at Least 75% Reduction in Total Incontinence, Unadjusted (%) / Patients with at Least 75% Reduction in Total Incontinence, Unadjusted n / Total Incontinence 75% responders, Active - Placebo CMH Difference: FAS-I
Description: Enrollment of patients included individuals with OAB Wet (those with UUI, the involuntary loss of urine accompanied by urgency) and OAB Dry (those without UUI). A total of 1,518 patients were randomized across 215 study sites into one of three groups for a 12-week treatment period.
The study consisted of a Screening Period (1 to 5 weeks), a single-blind Run-in Period (2 weeks), a randomized double-blind Treatment Period (12 weeks), and a Follow-up Period (4 weeks).
Tolterodine ER 4 mg was the active control. […] Between the Baseline and Week 12 Visits, patients had study assessments at Week 4 and Week 8.
The Patient Voiding Diary was used by participants (via the eDiary or paper Diary) to record the frequency of daily OAB symptoms including all micturitions, urgency, incontinence, and main reason for incontinence by selecting the respective box for each symptom occurring during the course of a given day and night.
Urine volume data were collected separately by patients using the Urine Volume component of the eDiary, or the paper Urine Volume Chart. The Urine Volume Chart is a tool used in clinical practice and clinical investigation to assess voiding functions over a 24-hour period and is regarded as a useful instrument in the investigation of patients with voiding symptoms. Urine volume may be collected during any one (1) of the 7 Diary Days prior to the visit, and it should be recorded for ˜24 hours starting from the time the patient gets up for the day and continues until the time the patient gets up for the day on the next day.
For the purpose of this study, the number of micturitions was defined as the number of times a patient has voided in the toilet as indicated on the Patient Voiding Diary. Average daily micturitions were calculated using the daily entries in the Patient Voiding Diary, which was completed over the 7 days prior to each study visit. Average daily number of micturitions were calculated as the total number of micturitions that occurred on a Complete Diary Day divided by the number of Complete Diary Days in the Patient Voiding Diary. A complete diary day required confirmation by the patient in the Patient Voiding Diary that all voids and leakages had been recorded for the diary day. Baseline was defined as the average number of micturitions occurring during the last evaluable diary prior to the Baseline Visit.
The number of UUI episodes was defined as the number of times a patient had checked “urge” as the reason for accidental urine leakage. Average daily UUI episodes at each study visit were calculated in the same manner as described above for the micturition endpoint. The UUI endpoint were analyzed using only OAB Wet patients.
For the analysis of the co-primary endpoints (change from baseline in average number of daily micturitions at Week 12 and change from baseline in average number of daily urge urinary incontinence episodes at Week 12, and placebo adjustment of each), a mixed model for repeated measure (MMRM) with restricted maximum likelihood estimation was used. This model corrects for dropout and accounts for the fact that measurements taken on the same patient over time tend to be correlated by using all available information on patients within the same covariate set to derive an estimate of the treatment effect for a dropout-free population. The analysis model for each efficacy endpoint includes terms for treatment, visit, OAB Type (Wet vs Dry), Sex (Female vs Male), Region (US vs Rest of World), baseline score, and interaction of visit by treatment.
Primary inferences were drawn from treatment differences for the changes from baseline derived from the MMRM models at Week 12. As part of secondary objectives, the treatment differences for each post baseline visit were also derived using the same MMRM model. […]

[1] = subjects with prior ACH use, vibegron 75 mg, Week 12
[2] = vibegron 75 mg or tolterodine ER 4 mg
[3] = vibegron 75 mg or tolterodine ER 4 mg once daily
[4] = vibegron 75 mg or tolterodine ER 4 mg once daily, OAB Wet
[5] = vibegron 75 mg or tolterodine ER 4 mg, OAB Wet

O=C(Nc1ccc(C[C@@H]2CC[C@H]([C@H](O)c3ccccc3)N2)cc1)[C@@H]1CCc2nccc(=O)n21 [Vibegron, (6S)-N-[4-[[(2S,5R)−5-[(R)-hydroxy(phenyl)methyl]pyrrolidin−2-yl]methyl]phenyl]−4-oxo−7,8-dihydro−6H-pyrrolo[1,2-a]pyrimidine−6-carboxamide]
UUI Episodes, change at Week 12, mean (SD) (Week 12, subpopulation Age ≥65 years): −1.94 (2.50) | Daily Urgency, change at Week 12 (Week 12, subpopulation Age ≥65 years, posthoc analysis): −2.7 | Micturitions: Week 12 CFB Mean (descriptive statistics) (Week 12, ≥65 yrs): −2.10 | Patients with at Least 75% Reduction in Total Incontinence, Adjusted (%) (baseline to Week 2): 22.1% | Patients with at Least 75% Reduction in Total Incontinence, Adjusted n (baseline to Week 2): 89 | Patients with at Least 75% Reduction in Total Incontinence, Unadjusted (%) (baseline to Week 2): 23.6% | Patients with at Least 75% Reduction in Total Incontinence, Unadjusted n (baseline to Week 2): 95 | Total Incontinence 75% responders, Active - Placebo CMH Difference (baseline to Week 2): 9.3 | Patients with at Least 75% Reduction in Total Incontinence, Adjusted (%) (baseline to Week 4): 31.5% | Patients with at Least 75% Reduction in Total Incontinence, Adjusted n (baseline to Week 4): 127 | Patients with at Least 75% Reduction in Total Incontinence, Unadjusted (%) (baseline to Week 4): 34.5% | Patients with at Least 75% Reduction in Total Incontinence, Unadjusted n (baseline to Week 4): 139 | Total Incontinence 75% responders, Active - Placebo CMH Difference (baseline to Week 4): 11.8 | Patients with at Least 75% Reduction in Total Incontinence, Adjusted (%) (baseline to Week 8): 42.0% | Patients with at Least 75% Reduction in Total Incontinence, Adjusted n (baseline to Week 8): 169 | Patients with at Least 75% Reduction in Total Incontinence, Unadjusted (%) (baseline to Week 8): 43.7% | Patients with at Least 75% Reduction in Total Incontinence, Unadjusted n (baseline to Week 8): 176 | Total Incontinence 75% responders, Active - Placebo CMH Difference (baseline to Week 8): 14.7 | Patients with at Least 75% Reduction in Total Incontinence, Adjusted (%) (baseline to Week 12): 47.3% | Patients with at Least 75% Reduction in Total Incontinence, Adjusted n (baseline to Week 12): 191 | Patients with at Least 75% Reduction in Total Incontinence, Unadjusted (%) (baseline to Week 12): 50.1% | Patients with at Least 75% Reduction in Total Incontinence, Unadjusted n (baseline to Week 12): 202 | Total Incontinence 75% responders, Active - Placebo CMH Difference (baseline to Week 12): 15.8 | UUI, Week 12 LS mean change from baseline (placebo adjusted) (95% CI) (subgroup Age <65 years, vibegron 75 mg or tolterodine ER 4 mg): −0.5 (−0.9 to −0.1) | UUI, Week 12 LS mean change from baseline (placebo adjusted) (95% CI) (subgroup Age ≥65 years, vibegron 75 mg or tolterodine ER 4 mg): −0.8 (−1.2 to −0.3) | UUI, Week 12 LS mean change from baseline (placebo adjusted) (95% CI) (subgroup Age ≥75 years (posthoc analysis), vibegron 75 mg or tolterodine ER 4 mg): −1.6 (−2.4 to −0.8) | UUI, Week 12 LS mean change from baseline (placebo adjusted) (95% CI) (subgroup Females, vibegron 75 mg or tolterodine ER 4 mg): −0.7 (−1.0 to −0.4) | UUI, Week 12 LS mean change from baseline (placebo adjusted) (95% CI) (subgroup Males, vibegron 75 mg or tolterodine ER 4 mg): −0.1 (−0.9 to 0.8) | UUI, Week 12 LS mean change from baseline (placebo adjusted) (95% CI) (subgroup Non-White, vibegron 75 mg or tolterodine ER 4 mg): 0.0 (−0.6 to 0.7) | UUI, Week 12 LS mean change from baseline (placebo adjusted) (95% CI) (subgroup Region: Non-US, vibegron 75 mg or tolterodine ER 4 mg): −1.1 (−1.8 to −0.3) | UUI, Week 12 LS mean change from baseline (placebo adjusted) (95% CI) (subgroup Region: US, vibegron 75 mg or tolterodine ER 4 mg): −0.5 (−0.8 to −0.2) | UUI, Week 12 LS mean change from baseline (placebo adjusted) (95% CI) (subgroup White, vibegron 75 mg or tolterodine ER 4 mg): −0.8 (−1.1 to −0.4) | decrease in average number of UUI episodes in 24 hours, times the decrease with placebo [1]: about 1.75 times | decrease in average number of micturitions in 24 hours, more than the decrease with placebo [1]: about 0.7 | decrease in average number of micturitions in 24 hours, more than the decrease with placebo (subjects with prior B3 use, vibegron 75 mg, Week 12): about 2.9 | total daily incontinence, placebo adjusted, week 2 (vibegron 75 mg): −0.7 | average volume voided, placebo-adjusted mean change from baseline, week 12 [2]: 21.2 mL | placebo-adjusted mean total daily incontinence episodes, week 12 [2]: −0.7 episodes | proportion of patients (UUI responders) with 75% or more reduction in daily UUI episodes, week 12 [2]: 49.3% | Micturitions, active-placebo LS mean difference, Week 2 [3]: −0.5 | Micturitions, active-placebo LS mean difference, Week 4 [3]: −0.6 | Micturitions, active-placebo LS mean difference, Week 8 [3]: −0.6 | Micturitions, active-placebo LS mean difference, Week 12 [3]: −0.5 | Micturitions, average daily number, Week 2 mean [3]: 10.18 | Micturitions, average daily number, Week 4 mean [3]: 9.84 | Micturitions, average daily number, Week 8 mean [3]: 9.53 | Micturitions, average daily number, Week 12 mean [3]: 9.32 | Micturitions, change from baseline LS mean, Week 2 [3]: −0.8 | Micturitions, change from baseline LS mean, Week 4 [3]: −1.1 | Micturitions, change from baseline LS mean, Week 8 [3]: −1.4 | Micturitions, change from baseline LS mean, Week 12 [3]: −1.8 | UUI episodes, active-placebo LS mean difference, Week 2 [4]: −0.6 | UUI episodes, active-placebo LS mean difference, Week 4 [4]: −0.7 | UUI episodes, active-placebo LS mean difference, Week 8 [4]: −0.6 | UUI episodes, average daily number, Week 2 mean [4]: 2.03 | UUI episodes, average daily number, Week 4 mean [4]: 1.77 | UUI episodes, average daily number, Week 8 mean [4]: 1.65 | UUI episodes, average daily number, Week 12 mean [4]: 1.46 | UUI episodes, change from baseline LS mean, Week 2 [4]: −1.4 | UUI episodes, change from baseline LS mean, Week 4 [4]: −1.7 | UUI episodes, change from baseline LS mean, Week 8 [4]: −1.8 | UUI episodes, change from baseline LS mean, Week 12 [4]: −2.0 | Estimated incidence of subjects with 75% decrease from baseline in UUI episodes, Week 2 [5]: 24.3 | Estimated incidence of subjects with 75% decrease from baseline in UUI episodes, Week 4 [5]: 26.6 | Estimated incidence of subjects with 75% decrease from baseline in UUI episodes, Week 8 [5]: 41.3 | Estimated incidence of subjects with 75% decrease from baseline in UUI episodes, Week 12 [5]: 52.7 | First 75% reduction in UUI episodes, Events/Censored, Week 2 [5]: 98/305 | First 75% reduction in UUI episodes, Events/Censored, Week 4 [5]: 107/296 | First 75% reduction in UUI episodes, Events/Censored, Week 8 [5]: 166/237 | First 75% reduction in UUI episodes, Events/Censored, Week 12 [5]: 210/193 | Overall time to first 75% decrease in UUI episodes, 25th percentile [5]: 3.9 weeks | Overall time to first 75% decrease in UUI episodes, 75th percentile [5]: 13.1 weeks | Overall time to first 75% decrease in UUI episodes, median (95% CI) [5]: 8.4 (8.1 to 12.1) weeks | Time to first 75% decrease in UUI episodes, Events/Censored (overall) [5]: 239/164 | total daily incontinence, mean change from baseline (reduction) (vibegron 75 mg, after 12 weeks): 2.3 episodes | statistically significant onset of action, reduction in urge urinary incontinence (UUI) (vibegron 75 mg/day, FIG. 4): 2 weeks | statistically significant onset of action, reduction in micturitions (vibegron 75 mg/day, FIG. 5): 2 weeks | statistically significant onset of action, reduction in urgency episodes (vibegron 75 mg/day, FIG. 6): 2 weeks | statistically significant onset of action, urge incontinence responder rate (vibegron 75 mg/day, FIG. 7): 2 weeks | statistically significant onset of action, reductions in total incontinence episodes (vibegron 75 mg/day, FIG. 9): 2 weeks | statistically significant onset of action, improvement in volume voided (vibegron 75 mg/day, FIG. 10): 2 weeks
